Read-outs that look alike come from different tables or passages of the source.
How the values were obtained:
[1] = target: T1, secreted soluble GalNAc-T4 (sT4) (Homo sapiens, UniProt Q8N4A0); test: Direct binding ELISA to GalNAc-MUC1 glycopeptide, competitive inhibition, sT4; details: binding to GalNAc-MUC1 glycopeptide
T1 construct: using the GalNAc-T4-sol construct that encodes residues 32-578 inserted into pT7T3U19; 6xHis (N); thrombin cleavage site (N); T7 tag (N); made in house; host or cells: High Five insect cells (baculovirus)
Protocol: (§1) Protein biotinylation was made as previously reported^62. The pH of 1 ml purified protein (0.3 mg/ml) in PBS was adjusted to pH 9 with 1 M NaOH and 40 μl N-hydroxy-succinimidobiotin (Sigma) dissolved in DMF (10 mg/ml) was added. The solution was mixed end-over-end for 2 hours at room temperature, and dialyzed three times against PBS and an equal volume of glycerol was added. The biotinylated proteins were stored at −20° C. in 50% glycerol until use.
(§2) Direct binding ELISA assay was developed as follows: Polystyrene microtiter plates (Maxisorb, Nunc, Denmark) were coated with peptides or enzymatically glycosylated glycopeptides in PBS overnight at 4° C. Plates were washed and blocked with 0.1% Tween20 and 0.2% BSA in PBS for 1 h at room temperature, followed by incubation with biotinylated proteins in PBS with 0.05% Tween20 for 2 h at room temperature. After four washes with PBS, plates were incubated with 1:2,000 dilution streptavidin-HRP (Sigma) in PBS for 30 min at room temperature and washed four times with PBS. Development was performed with 0.5 mg/ml o-phenylenediamine and 0.02% H2O2 at room temperature for 15 min, and reaction stopped by adding 100 μl/well of 0.5 N H2SO4. Competitive inhibition assays were done at end-point titers of GalNAc-transferase proteins with one hour preincubations with inhibitor.
(§3) In binding studies using lectins without biotinylation antibodies to the HIS-tag and the T7-tag, or in some experiments antibodies raised to GalNAc-T2 and -T4 enzymes were used to detect binding.

[2] = target: T2, GalNAc-T4 lectin domain (T4ld) (Homo sapiens, UniProt Q8N4A0); test: Direct binding ELISA to GalNAc-MUC1 glycopeptide, competitive inhibition, T4ld
T2 construct: made in house; host or cells: High Five insect cells (baculovirus, pAcGP67-A)
Protocol: as §1, §2, §3

[3] = target: T3, GalNAc-T2 lectin domain (T2ld) (Homo sapiens, UniProt Q10471); test: Direct binding ELISA to GalNAc-MUC1 glycopeptide, competitive inhibition, T2ld
T3 construct: made in house; host or cells: High Five insect cells (baculovirus, pAcGP67-A)
T3 sequence (Q10471 408-571): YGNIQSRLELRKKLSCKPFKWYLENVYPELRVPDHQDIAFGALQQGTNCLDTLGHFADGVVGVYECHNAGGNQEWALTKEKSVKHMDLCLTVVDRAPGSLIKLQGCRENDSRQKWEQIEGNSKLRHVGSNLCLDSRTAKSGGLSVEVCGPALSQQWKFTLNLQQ
Protocol: as §1, §2, §3

[4] = target: T4, secreted soluble GalNAc-T2 (sT2) (Homo sapiens, UniProt Q10471); test: Direct binding ELISA to GalNAc-MUC1 glycopeptide, competitive inhibition, sT2
T4 construct: HIS-tagged secreted human GalNAc-T2 and -T4 were prepared from pAC-GP67-T2-sol and pAC-GP67-T4-sol cDNA; 6xHis (N); thrombin cleavage site (N); T7 tag (N); made in house; host or cells: High Five insect cells (baculovirus)
Protocol: as §1, §2, §3

[5] = target: Helix Pomatia lectin (HPA) (Helix pomatia, UniProt Q2F1K8); test: Direct binding ELISA, competitive inhibition, Helix Pomatia lectin control; details: read-out: Concentration required for 50% inhibition (IC50), HPA; control plant lectin
Excerpt: Glycopeptides were purified by C-18 reverse phase HPLC. Peptides were custom synthesized by Neosystems (Strasbourg). Biotinylated Helix Pomatia lectin (HPA) was from KemEnTec (Denmark). Anti-MUC1 HMFG2 monoclonal antibody was a generous gift from Joyce Taylor-Papadimitriou. Anti-MUC1 SE5 monoclonal antibody was developed by immunizing Balb/c mice with 60-mer MUC1 tandem repeat peptide glycosylated with 5 moles GalNAc per repeat. Monoclonal antibodies to the lectin domains of human GalNAc-T2 and -T4 were developed as previously described^8, 63.
as §2
Inhibition experiments were used to further define the binding specificity of GalNAc-T2 and -T4 secreted soluble enzymes as well as lectin domains compared to Helix Pomatia lectin (Table VII).

[6] = target: T5, GalNAc-T4 (Homo sapiens, UniProt Q8N4A0); test: Inhibition of glycosylation dependent (GalNAc-glycopeptide) activity of GalNAc-T4, MALDI-TOF time-course; type: biochemical; details: […] free sugar
T5 construct: using the GalNAc-T4-sol construct that encodes residues 32-578 inserted into pT7T3U19; made in house; host or cells: High Five insect cells (baculovirus, pAcGP67)
Protocol: MALDI-TOF time-course in terminal reactions were performed in reactions of 25 μl containing 2.5 nmol acceptor (glyco)peptide, 40 nmol UDP-GalNAc, and 0.4 μg GalNAc-T4. Sampling of reactions (1 μl) were purified by nano-scale reversed-phase chromatography (Poros R3, PerSeptive Biosystem) and applied directly to the probe with matrix (41). The amount of GalNAc-transferase added was adjusted so that the reaction with the appropriate peptide was near completion in six hours. Reactions were incubated at 37° C. in a shaker bath. At times 0, 2 hours, and 16 hours a 1 μl aliquot was taken and purified. Mass spectra were acquired on either Voyager-DE mass spectrometer equipped with delayed extraction (Perseptive Biosystem Inc.). The matrix used was 2,5-dihydroxybenzoic acid (10 mg/ml, Hewlett-Packard) dissolved in a 2:1 mixture of 0.1% trifluoroacetic acid in 30% aqueous acetonitrile (Rathburn Ltd.).
Quantification of purified proteins was done by Coomassie stained SDS-PAGE and titration of immunoreactivity with the monoclonal antibody, UH6(4G2) (8). […] Wild-type GalNAc-T4 and mutant GalNAc-T4, GalNAc-T4^459H, were analysed with unglycosylated peptides (represented by PSGL-1) or GalNAc glycosylated glycopeptides (represented by GalNAc3TAP25V21) in reactions of 25 μl containing 2.5 nmol acceptor (glyco)peptide, 40 nmol UDP-GalNAc, and 0.4 μg GalNAc-T4. Time-course assays were motioned by MALDI-TOF. Sampling of reactions (1 μl) were purified by nano-scale reversed-phase chromatography (Poros R3, PerSeptive Biosystem) and applied directly to the probe with matrix. Evaluation of inhibition of the glycopeptide specificity of wild-type GalNAc-T4 with free sugars was performed to establish if the lectin domain recognized carbohydrate. […] Further, analysis was performed with 10 mM α-D-GalNAc-1-benzyl, αGlcNAc-benzyl, and fully occupied GalNAc-glycopeptide, GalNAc6TAP25, at 5 mM.

[7] = read-out: Concentration required for 50% inhibition (IC50), sT4
[8] = read-out: Concentration required for 50% inhibition (IC50), T4ld
[9] = read-out: Concentration required for 50% inhibition (IC50), T2ld
[10] = read-out: Concentration required for 50% inhibition (IC50), sT2

Question: For `COC1O[C@H](CO)[C@H](O)[C@H](O)[C@H]1O` (single isomer, unassigned) [MeβGal], which IC50 [1] is on record?
Answer: Its IC50 is 40 mM.

Question: And the IC50 [2]?
Answer: Its IC50 is greater than 100 mM.

Question: And the IC50 [3]?
Answer: Its IC50 is greater than 100 mM.

Question: And the IC50 [4]?
Answer: The IC50 was greater than 100 mM.

Question: For `CC(=O)N[C@H]1[C@H](OCc2ccccc2)O[C@H](CO)[C@@H](O)[C@@H]1O` [BzlβGlcNAc], which IC50 [1] is on record?
Answer: The IC50 was greater than 100 mM.

Question: And the IC50 [2]?
Answer: Its IC50 is greater than 100 mM.

Question: And the IC50 [5]?
Answer: The IC50 was greater than 20 mM.

Question: And the IC50 [3]?
Answer: The IC50 was greater than 100 mM.

Question: What about the IC50 [4] of the same compound?
Answer: The IC50 was greater than 100 mM.

Question: For `C[C@@H]1OC(O)[C@@H](O)[C@H](O)[C@@H]1O` (stereo partly drawn) [Fuc], which “Inhibition of glycosylation dependent specificity of GalNAc-T4” value (from here on “Inhibition”) [6] is on record?
Answer: Its value is “failed to show significant inhibition”.

Question: How did the “Inhibition” value [6] turn out when `OC[C@H]1OC(O)[C@H](O)[C@@H](O)[C@H]1O` (stereo partly drawn) [Gal] was run?
Answer: Its value is “failed to show significant inhibition”.

Question: How did the “Inhibition” value [6] turn out when `CC(=O)N[C@H]1C(O)O[C@H](CO)[C@@H](O)[C@@H]1O` (stereo partly drawn) [GlcNAc] was run?
Answer: Its value is “failed to show significant inhibition”.

Question: What about the IC50 [1, 7] of the same compound?
Answer: The IC50 was greater than 100 mM.

Question: And the IC50 [2, 8]?
Answer: The IC50 was greater than 100 mM.

Question: What about the IC50 [5] of the same compound?
Answer: Its IC50 is 8 mM.

Question: And the IC50 [3, 9]?
Answer: The IC50 was greater than 100 mM.

Question: And the IC50 [4, 10]?
Answer: The IC50 was greater than 100 mM.

Question: How did the IC50 [1, 7] turn out when `CO[C@H]1O[C@H](CO)[C@H](O)[C@H](O)[C@H]1O` [MeαGal] was run?
Answer: Its IC50 is 50 mM.

Question: What about the IC50 [2, 8] of the same compound?
Answer: The IC50 was greater than 100 mM.

Question: What about the IC50 [5] of the same compound?
Answer: The IC50 was greater than 100 mM.

Question: What about the IC50 [3, 9] of the same compound?
Answer: Its IC50 is greater than 100 mM.

Question: What about the IC50 [4, 10] of the same compound?
Answer: Its IC50 is greater than 100 mM.

Question: `CC(=O)N[C@H]1[C@@H](Oc2ccccc2)O[C@H](CO)[C@H](O)[C@@H]1O` [PhlαGalNAc] was tested. Which IC50 [5] did it give?
Answer: Its IC50 is 1 mM.

Question: And the IC50 [3, 9]?
Answer: Its IC50 is 15 mM.

From US7338932B2, “Methods of modulating functions of polypeptide GalNAc-transferases and of screening test substances to find agents herefor, pharmaceutical compositions comprising such agents and the use of such agents for preparing medicaments” (Glycozym APS, priority 2000, dated 2008)
